Results from patent EP0299528A1, “Doxorubicin hydrochloride nonaqueous solution” (Bristol-Myers Squibb Company, priority 1987, dated 1989).
Counter-ions that a name gives are not always drawn. Like-named read-outs stand apart in the source and are kept apart here. Blank lines part the entries; values can stand above or below the compound they belong to.

Experiments:
[1] = Protocol: The pH is measured on solutions diluted to 1 mg/ml with water or 70% water/30% acetonitrile (v/v). […] An amount of citric acid is used which will provide a solution pH in the range of about 3-5, preferably 3-4.5.
We have tested a number of antioxidants including α-tocopherol, tert-butylhydroquinone (TBHQ), sodium formaldehyde bisulfite, butylated hydroxy anisole (BHA), butylated hydroxy toluene (BHT), sodium bisulfite and propyl gallate. […] Generally an amount of α-tocopherol, tert-butylhydroquinone or sodium formaldehyde bisulfite is employed in the range of about 0.1-2 mg/ml. The preferred concentration of antioxidant is about 0.5-2 mg/ml with about 2 mg/ml being most preferred.
Glass vials may conveniently be used as the container.

[2] = cited from earlier work; for reconstituted solution remains stable: in 0.9% NaCl solution, Ketchum, et al. 1981
[3] = Solubility of doxorubicin HCl in nonaqueous solvents; type: physicochemical; conditions: organic solvent or mixture
[4] = cited from earlier work

Structure (SMILES): O=C(O)CC(O)(CC(=O)O)C(=O)O [citric acid]
stability of the solutions with the acid used for pH control ([1]; acid used to reach a pH range of about 3-5): optimum stability

Structure (SMILES): COc1cccc2c1C(=O)c1c(O)c3c(c(O)c1C2=O)C[C@@](O)(C(=O)CO)C[C@@H]3O[C@H]1C[C@H](N)[C@H](O)[C@H](C)O1 [doxorubicin HCl, doxorubicin hydrochloride]
chemical stability of solutions ([1]; glycerol formal, 2-pyrrolidinone and 1-methyl-2-pyrrolidinone): chemically unstable
potency loss ([1]; short-term (0.5-1 hour) warming (60-80°C) in propylene glycol, 1,2-dihydroxybutane or 1,3-dihydroxypropane): no potency loss
physical stability of the solution on storage ([1]; stored at 4°C to -20°C, seeding with crystalline doxorubicin HCl does not affect crystallization): remains in solution
reconstituted solution remains stable ([2]; 5°C): seven
reconstituted solution remains stable ([2]; room temperature): seven
reconstituted solutions stable (≦10% potency loss) ([2]; refrigerated at 4°C, Hoffman, et al. 1979): up to six
solubility ([3]; glycerol formal, pyrrolidinones, glycerol formal, 2-pyrrolidinone and 1-methyl-2-pyrrolidinone, read-out: concentration of solutions produced): ≥ 5000 µg/mL
solubility ([3]; glycols with 5-10% water, propylene glycol, 1,2-dihydroxybutane, 1,3-dihydroxypropane with addition of 5-10% (v/v) water, read-out: solubility): ~20000 µg/mL
solubility ([3]; nonaqueous solvents, same three solvents after short-term (0.5-1 hour) warming (60-80°C) with vigorous stirring, read-out: solubility): ~10000 µg/mL
solubility ([3]; nonaqueous solvents, with heating, polyethylene glycols, ethanol, benzyl alcohol, dimethylisosorbide, ethyl lactate, Solketol, Cremophors, Pluronics, read-out: solubility): < 5000 µg/mL
solubility ([3]; propylene glycol, 1,2-dihydroxybutane, 1,3-dihydroxypropane, room temperature, in propylene glycol, 1,2-dihydroxybutane and 1,3-dihydroxypropane, read-out: solubility): < 5000 µg/mL
pH of maximum stability ([4]; Tris or phosphate buffers using HCl to adjust pH, Janssen, et al. 1985): 4
pH of optimum stability ([4]; reconstitution solvent 5% Dextrose Injection, USP, Poochikian, et al. 1981): ~4.5

Other lines, results leading:

stability of the solutions with the antioxidant [1]: resulted in the desired stability
Structure (SMILES): O=S(=O)(O)CO [sodium formaldehyde bisulfite]

stability of the solutions with the antioxidant ([1]; elevated temperatures as well as room temperature (25°C) or below): resulted in the desired stability
Structure (SMILES): CC(C)(C)c1cc(O)ccc1O [tert-butylhydroquinone]

stability of the solutions with the antioxidant [1]: resulted in the desired stability
Structure (SMILES): Cc1c(C)c2c(c(C)c1O)CCC(C)(CCCC(C)CCCC(C)CCCC(C)C)O2 (stereo not drawn) [α-tocopherol]

effect of additive on stability of the solutions [1]: did not improve stability
Structure (SMILES): CCCCCCCC/C=C\CCCCCCCC(=O)OCCOCC(OCCO)C1OCC(OCCO)C1OCCO (stereo not drawn) [Tween-80]
